Test results from patent US8507656B2, “Stabilized angiopoietin-2 antibodies and uses thereof” (MedImmune Limited, priority 2008, dated 2013).
Entries after “also recorded” stand apart in the source; their conditions may differ. Marks after values point to notes of the source that are not given here.

How the values were obtained:
Calu6 xenograft tumors = type: in vivo; settings: 3.19.3 10 mg/kg 2×wk i.p., Docetaxel 15 mg/kg/week i.v., combination of both
Procedure: (§1) The anti-tumor activity of 3.19.3 was evaluated in combination with Docetaxel in the Calu6 xenograft model of lung cancer. Calu6 cells were cultured in flasks as routine until the cells reached sub-confluence. Cell suspensions containing approximately 3×10E6 cells were injected subcutaneously into the flank of female Swiss nude mice. When the tumor volume reached 200 mm^3, the mice were randomized in treatment groups of 8-10 mice and the treatments were initiated. 3.19.3 (10 mg/kg) in saline was injected intraperitoneally, twice per week for 2 weeks. Docetaxel (15 mg/kg) was administered by intravenous administration following a weekly schedule. The dimensions of each tumor and body weights were measured at least twice per week. The volume of the tumor was calculated as: Volume=Length×(Width)×0.5 (cm^3).

[1] = tested on: collagen-induced arthritis; test: Collagen-induced arthritis (CIA), dose response (Example 11); type: in vivo, male DBA/1 mice
Colo205 xenograft tumors = test: Colo205 xenograft model of colorectal cancer; type: in vivo; settings: 3.19.3 10 mg/kg 2×wk i.p., Gemcitabine 50 mg/kg q3dx2 i.v., combination of both
Procedure: as §1, with “Gemcitabine” for “Docetaxel”, “Colo205” for “Calu6”, “colorectal” for “lung”, “Gemcitabine (50” for “Docetaxel (15”, “q3d” for “weekly”, “(cm^3). […] The % tumor growth inhibition achieved is as follows: […]” for “(cm^3).”

H460 xenograft tumors = type: in vivo; settings: 3.19.3 10 mg/kg 2×wk i.p., AZD4877 10 mg/kg q4dx2 i.p., combination of both
Procedure: The anti-tumor activity of 3.19.3 was evaluated in combination with AZD4877 in the
H460 xenograft model of lung cancer. H460 cells were cultured in flasks as routine until the cells reached sub-confluence. Cell suspensions containing approximately 3×10E6 cells were injected subcutaneously into the right flank of male NCr nu/nu mice. When the tumor volume reached 200 mm^3, the mice were randomized in treatment groups of 8-10 mice and the treatments were initiated. 3.19.3 (10 mg/kg) in saline was injected intraperitoneally, twice per week for 2 weeks. AZD4877 (10 mg/kg) was administered by intraperitoneal administration following a q4d schedule. The dimensions of each tumor and body weights were measured at least twice per week. The volume of the tumor was calculated as: Volume=Length×(Width)×0.5 (cm^3).

[2] = tested on: MDA-MB-231 xenograft tumors; test: MDA-MB-231 orthotopic breast cancer xenograft model; type: in vivo; settings: 3.19.3 10 mg/kg 2×wk i.p., AZD6495 30 mg/kg bid p.o. 18 d, combination of both
Procedure: The anti-tumor activity of the anti-Angiopoietin-2 monoclonal antibody 3.19.3 in combination with the small molecule CSF1R tyrosine kinase inhibitor AZD6495 was evaluated in a xenograft model of human breast carcinoma using the MDA-MB-231 cell line (FIG. 5a).
Breast adenocarcinoma MDA-MB-231 cells were cultured in flasks as routine until the cells reach sub-confluence. Immunodeficient 7-10 week old female nude mice were orthotopically implanted with 8×10^6 MDA-MB-231 cells suspended 1:1 in Matrigel into the mammary fat pad. The mice were then randomized into cohorts containing 10 mice once the tumors reached approximately 100 mm^3. The mice were treated by intraperitoneally (IP) injection with mAb 3.19.3 (10 mg/kg) twice per week for 3 weeks thereafter, or by oral administration of AZD6495 (30 mg/kg) following bid dosing for 18 days. […] The body weights of each animal, and the dimensions of each tumor were measured twice per week. The volume of the tumor was calculated as: Volume=Length×(Width)^2×0.5 cm^3, or by bilateral Vernier caliper measurement and, taking length to be the longest diameter across the tumor and width the corresponding perpendicular, calculated using the formula (π/6)×(length×width)×√(length×width). Growth inhibition from the start of treatment was assessed by comparison of the differences in tumor volume between control and treated groups.

HT-29 xenograft tumors = test: HT-29 xenograft model of colorectal cancer; type: in vivo; settings: 3.19.3 10 mg/kg 2×wk i.p., Irinotecan 35 mg/kg/week i.v., combination of both
Procedure: as §1, with “Irinotecan” for “Docetaxel”, “HT-29” for “Calu6”, “colorectal” for “lung”, “Irinotecan (35” for “Docetaxel (15”, “(cm^3). […] The % tumor growth inhibition achieved is as follows: […]” for “(cm^3).”

[3] = tested on: collagen induced arthritis
[4] = 0.1 mg/kg ip every 3 days for 14 days from disease onset
[5] = 1 mg/kg ip every 3 days for 14 days from disease onset
[6] = 10 mg/kg ip every 3 days for 14 days from disease onset
[7] = means ± SEM, 3.19.3 10 mg/kg i.p every 3 days, hIgG i.p, Prednisolone 3 mg/kg p.o daily, 14 days from disease onset

3.19.3: fully human anti-Ang-2 monoclonal antibody, wild type control; light chain SEQ ID No. 1, heavy chain SEQ ID No. 2 [Antibody 3.19.3]
% tumor growth inhibition (Calu6 xenograft tumors): 20%
% inhibition (AUC of Clinical Score) [1, 4]: 16% +/− 13%
AUC of Clinical Score [1, 4]: 99 +/− 15
% inhibition (AUC of Clinical Score) [1, 5]: 53% +/− 7%*
AUC of Clinical Score [1, 5]: 46 +/− 9
% inhibition (AUC of Clinical Score) [1, 6]: 44% +/− 9%*
AUC of Clinical Score [1, 6]: 67 +/− 11
CD31+ microvessel density in synovium (in words) ([1]; 3.19.3 0.1 mg/kg): no effect
histopathological evaluation: synovial hyperplasia, synovitis, pannus, synovial fibrosis, periostitis (in words) ([1]; 3.19.3 0.1, 1 and 10 mg/kg, isotype control vs PBS vehicle): dose-dependent anti-arthritic effect
CD31+ microvessel density in synovium (in words) ([1]; 3.19.3 at 1 and 10 mg/kg, prednisolone 3 mg/kg): significant reduction in microvessel density; also recorded: significant reduction in the presence of microvessels
clinical signs of disease progression (arthritic score) (in words) ([1]; doses of 1 and 10 mg/kg): significant reduction
% tumor growth inhibition (Colo205 xenograft tumors): 74%
% tumor growth inhibition (H460 xenograft tumors): 64%
% tumor growth inhibition [2]: 17%
% tumor growth inhibition (HT-29 xenograft tumors): 44%
clinical signs of disease progression (arthritic score) and histological assessment of synovitis and joint destruction (in words) ([3]; 3.19.3 10 mg/kg, vs vehicle control): Significant reductions
% Inhibition (of AUC of clinical disease progression) [3, 7]: 64.3% ± 8.6%
Area Under Curve (AUC) of clinical disease progression [3, 7]: 36.0 ± 8.7
tolerability by mean body weight (in words) ([3]; mouse, in vivo, 10 mg/kg): well tolerated
